# According to patent US8143276B2, “4-thio substituted quinoline and naphthyridine compounds” (XTL Biopharmaceuticals Ltd., priority 2007, dated 2012):
# Experiments:
# Huh-Luc-Neo Cells = assay: CellTiter-Glo Cell Viability Assay; format: cell-based, human; conditions: 48 h, read-out: Cytotoxicity*
# Description: (§1) Day 0, Cell Seeding and Compound Treatment: Huh-Luc-Neo Cells are seeded at 25,000/well in an opaque-walled 96 plate with Growth Medium (DMEM phenol red free+PS+2 mM glutamine; 100 ul/well). The compounds to be tested for inhibition of cell viability are added to the experimental wells (10 μl/well at 10× assay concentration) and the cells are then incubated (5% CO2, 37° C.) for 48 h.
# Day 2, Reagent Preparation and Assay: The CellTiter-Glo Buffer is thawed and equilibrated to room temperature prior to use. The lyophilized CellTiter-Glo Substrate is equilibrated to room temperature prior to use. 10 ml of CellTiter-Glo Buffer is transferred to 1 vial of CellTiter-Glo Substrate and mixed by gently with a Vortex. 100 μl of CellTiter-Glo Assay reagent (CellTiter-Glo Buffer+CellTiter-Glo Substrate Mixture) is added to each well. The well contents are mixed for 5 min. on an orbital shaker at room temperature to induce cell lysis and the luminescence is then measured using a luminometer.
# HCV RNA = assay: HCV Replicon RNA Assay (Taqman); format: cell-based, Hepatitis C virus; conditions: Huh-Luc-Neo cells, compound re-added at 24 h, HCV RNA by quantitative PCR; read-out: Replicon Inhibition*, Taqman
# Description: (§2) Expression of HCV IRES driven luciferase reporter activity and HCV RNA is measured to obtain indirect and direct measures of replication of HCV RNA respectively. Inhibitors of HCV replication and/or proliferation are determined by initially identifying molecules that inhibit expression of the HCV IRES driven luciferase reporter in this HCV Replicon Luciferase Assay. Cell viability assays and control cell based luciferase assays are then run on hits identified in the HCV Replicon Luciferase Assay to eliminate cytoxic compounds and non-specific compounds which act by inhibiting the luciferase enzyme.
# as §1, with “μl/well).” for “ul/well).”, “tested” for “tested for inhibition of cell viability”, “C.).” for “C.) for 48 h.”
# Day 1, Media Change and Compound Treatment: 24 hours after the initial compound treatment the cell culture media is aspirated from the wells and fresh Growth Medium is added (DMEM phenol red free+PS+2 mM glutamine; 100 μl/well). The compounds to be tested are then added to the appropriate experimental wells (10 μl/well at 10× assay concentration) and the cells are then incubated (5% CO2, 37° C.) for an additional 24 hrs.
# Day 2, RNA Isolation and cDNA Synthesis: The cells are washed with 1× Phosphate Buffered Saline (PBS) once.
# Day 3, Quantitative PCR Based Measurement of HCV RNA (Taqman Assay): Quantitative PCR analysis to measure HCV RNA expression from cDNA synthesized on Day 2 is performed using the ABI 9700 HT Sequence Detection System (Applied Biosystems) as previously described (Lohman et al, Science 285, 110-113, 1999). The data is analyzed and IC50s are determined using GraphPad Prism 4 software. Hits validated in the Replicon RNA Assay have IC50s<8.0 μM and show <30% inhibition of Cell Viability at a compound concentration of 50 μM (Cell Titer Glow Assay, cell viability assay conditions identical to HCV Replicon RNA Assay conditions).
# HCV Replicon = HCV Replicon Luciferase Assay; format: cell-based, Hepatitis C virus; conditions: Huh-Luc-Neo cells, 48 h incubation, luciferase reporter; read-out: Replicon Inhibition*, Luciferase
# Description: The identification of inhibitors of HCV replication and/or proliferation has been facilitated by the development of a cell-based system to study HCV replication. Inhibition of HCV replication may be performed using the HCV Replicon Assay developed in the laboratories of Bartenschlager (Lohman et al, Science 285, 110-113, 1999) and Rice (Blight et al, Science 290, 1972-1974, 2000). The assay is performed using the Huh-Luc-Neo cell line (Lohman et al, Science 285, 110-113, 1999). Huh-Luc-Neo cells are a human hepatoma cell line (Huh-7) stably expressing a bi-cistronic subgenomic replicon containing the HCV IRES in which the structural proteins of HCV have been deleted and replaced by a construct containing sequences coding for the firefly luciferase reporter gene, the neomycin selectable marker and the EMCV IRES to direct expression of a truncated HCV genome expressing the […] NS3, NS4A, NS4B, NS5A, and NS5B. HCV targets through which inhibitors could act to inhibit replication include the NS3 protease, the helicase/ATPase, NS5A, the NS5B-RNA dependent RNA polymerase, and the HCV IRES.
# as §2
# as §1, with “μl/well).” for “ul/well).”, “tested” for “tested for inhibition of cell viability”
# Day 2, Reagent Preparation and Luciferase Assay: The Bright-Glo Luciferase Assay Buffer (Promega) is thawed and equilibrated to room temperature prior to use. The lyophilized Bright-Glo Luciferase Assay Substrate is equilibrated to room temperature prior to use. 10 ml of Bright-Glo Luciferase Assay Buffer is transferred to 1 vial of Bright-Glo Luciferase Assay Substrate bottle and mixed by gently with a Vortex. 100 μl of Bright-Glo Luciferase Assay reagent (Bright-Glo Luciferase Assay Buffer+Bright-Glo Luciferase Assay Substrate Mixture) is added to each well. The well contents are mixed for 5 min. on an orbital shaker at room temperature to induce cell lysis and the luminescence is then measured using a luminometer. The data is analyzed and IC50s are determined using GraphPad Prism 4 software. Hits validated in the Replicon Luciferase assay have IC50s<8.0 μM and show <30% inhibition of Cell Viability at a compound concentration of 100 μM (Cell Titer Glow Assay, cell viability assay conditions identical to HCV Replicon Luciferase Assay conditions).
compound,measurement,setting,value
Cn1c(=O)cc(Sc2ccccc2F)c2ccccc21 [compound 008],IC50,Huh-Luc-Neo Cells,> 100 µM
same,IC50,HCV RNA,1 to 10 µM
same,IC50,HCV Replicon,1 to 10 µM
